The text below walks through data of US6979687B1, “Theophylline-based soluble guanylyl cyclase activators KMUP-1 analogues enhanced cyclic GMP and K+ channel activities on rabbit corpus cavernosum smooth muscle and intercavernous pressure activities” (Cho-Jan Liang, priority 2002, dated 2005).

The test system of the experiment is rabbit corpus cavernosum smooth muscle cells. Put plainly: Intracellular cGMP content in rabbit corpus cavernosum smooth muscle cells. It is filed as cell-based. The protocol:
(§1) Culture of rabbit corpus cavernosum smooth muscle cells Rabbit corpus cavernosum smooth muscles were obtained as sterile surgical specimens, the tissue was washed and cut into 1 to 2 mm pieces and placed into culture dishes with Dulbecco's modified Eagle's medium (DMEM) containing 20% fetal bovine serum (FBS), penicillin (100 U ml^−1), streptomycin (100 U ml^−1) and 2 mM Glutamine. After explants attached to the culture dish, usually 1 to 2 days, DMEM (Dulbecco's modified Eagle's medium) supplement with 10% FBS, penicillin, streptomycin, and glutamine were added. Smooth muscle cells migrated out from the explants in 3–5 days. At this time, the explants were removed, and cells were allowed to achieve confluence. Cells were detached using 0.05% trypsin, 0.02% EDTA at 37° C. for 5 minutes to establish secondary cultures. Cultures were maintained for no more than 4 passages. Cellular homogeneity was further confirmed by the presence of smooth muscle specific α-myosin and α-actin immunoreactivity. Indirect immunofluorescence staining for a variety of antigens was carried out by first plating the cells on chamber slides fixing the cells in 3.7% formaldehyde-phosphate buffered saline for 10 minutes and permeabilizing the cells with phosphate buffered saline 0.1% Triton X-100. Cells were then stained with either a mouse monoclonal antibody directed against the amino terminal 10 amino acids of α-smooth muscle actin and α-myosin (Moreland R. B. et al., J Urol., 153, 826–834, 1995).
Measurement of intracellular guanosine 3′,5′-cyclic monophosphate content Intracellular cGMP concentrations in rabbit corpus cavernosum smooth muscle cells were assayed as our previously described (Wu et al., 2001). In brief, cells were finally grown in 24-well plates (10^5 cells well^−1). […] Incubation was terminated by the addition of 6% trichloroacetic acid (TCA). Cell suspensions were sonicated and then centrifuged at 2500 g for 15 min at 4° C. Then, the supernatants were lyophilized and cGMP of each sample was determined using a commercially available radioimmunoassay kits (Amersham Pharmacia Biotech, Buckinghamshire, England).
as §1, with “Rabbit CCSMs (corpus” for “Rabbit corpus”, “smooth muscles)” for “smooth muscles”, “DMEM” for “DMEM (Dulbecco's modified Eagle's medium)”, “(Moreland” for “(Moreland R. B.”, “al.,” for “al., J Urol., 153, 826–834,”
Measurement of intracellular cyclic GMP content Intracellular cGMP concentrations in rabbit CCSM cells were assayed as our previously described (Wu et al., 2001). In brief, cells were finally grown in 24-well plates (10^5 cells well^−1). […] Incubation was terminated by the addition of 6% trichloroacetic acid (TCA). Cell suspensions were sonicated and then centrifuged at 2500 g for 15 min at 4° C. […]

As to `Cn1c(=O)c2c(ncn2CCN2CCN(c3ccccc3Cl)CC2)n(C)c1=O` [KMUP-1, 7-[2-[4-(2-chlorophenyl)piperazinyl]-ethyl]-1,3-dimethylxanthine], where the note is “0.01–10 μM, in the presence of IBMX (100 μM)”, the cGMP levels entry is given as “increased the cGMP levels”. For the setting “pretreatment with ODQ (10 μM)”, the “cGMP levels after ODQ pretreatment” value was “inhibited”.
